The structures appear in SMILES notation. Several values for one entry are separate records, joined by “and”; a condition that tells them apart may be missing. Identical values can stand only once.

The record followed here is US20210369615A1, “SOLID ORAL FORMULATIONS OF AMPHOTERICIN B” (iCo Therapeutics Inc., priority 2018, published 2021).

The nature of the series: Stability study: related substances (% area) after storage. The class given is physicochemical. How it is done:
A stability study was initiated for Formulation 1A and Formulation 2A. The capsules were packaged in 30 cc HDPE bottles with induction sealed PP caps and the bottles were stored under ICH stability conditions in humidity chambers at 25° C./60% RH and under accelerated conditions, 40° C./75% RH. The capsules were stored at 4-8° C. directly after preparation until they were placed into the stability chambers. […]
Another stability study was initiated for Formulation 5A. The capsules were packaged as per Formulation 1A and Formulation 2A and store under the same conditions.
An Amphotericin B/TPGS/Peceol/Gelucire 44/14 semi-solid lipid based formulation in hard shell capsule was prepared (Formulation 5A) and stored under ICH controlled stability conditions. […] The dissolution profile however decreased (Table 23 and FIG. 9). As indicated before, this behavior could be a result a recrystallization or aggregation of the AmpB.

`C[C@@H]1[C@H](O)[C@@H](C)/C=C/C=C/C=C/C=C/C=C/C=C/C=C/[C@H](O[C@@H]2O[C@H](C)[C@@H](O)[C@H](N)[C@@H]2O)C[C@@H]2O[C@](O)(C[C@@H](O)C[C@@H](O)[C@H](O)CC[C@@H](O)C[C@@H](O)CC(=O)O[C@H]1C)C[C@H](O)[C@H]2C(=O)O` [AmpB (Corealis lot drawing 729)]: the “Related Substances, Total % area” value reads like this: (T = 0) 7.67 % area; (T = 1 month 40° C./75% RH) 7.71 % area; (T = 3 months 25° C./60% RH) 7.38 % area; (T = 6 months 25° C./60% RH) 7.18 % area; (T = 6 months 40° C./75% RH) 7.32 % area. The “Related Substances, individual peak % area” value is, setting by setting: (T = 0, individual peaks ≥ 0.10%, RRT given) 0.54 % area and 0.12 % area (2×) and 0.32 % area and 0.33 % area and 0.24 % area and 0.60 % area and 0.31 % area and 0.65 % area and 0.69 % area and 0.30 % area and 1.00 % area and 1.47 % area and 0.82 % area and 0.14 % area; (T = 1 month 40° C./75% RH, individual peaks, RRT) 0.79 % area and 0.13 % area and 0.57 % area and 0.16 % area and 0.32 % area and 0.33 % area and 0.24 % area and 0.59 % area and 0.31 % area (2×) and 0.11 % area and 0.62 % area and 0.69 % area and 1.00 % area and 1.52 % area; (T = 3 months 25° C./60% RH, individual peaks, RRT) 0.14 % area (2×) and 0.78 % area and 0.15 % area (3×) and 0.48 % area and 0.35 % area and 0.22 % area and 0.54 % area and 0.25 % area and 0.57 % area and 0.77 % area and 0.13 % area and 0.16 % area and 1.03 % area and 1.37 % area; (T = 6 months 25° C./60% RH, individual peaks, RRT) 0.12 % area and 0.86 % area and 0.14 % area (2×) and 0.52 % area and 0.64 % area and 0.20 % area and 0.71 % area (2×) and 0.56 % area and 0.10 % area and 0.15 % area and 1.01 % area and 1.32 % area.
